# Results as given in publication PMC6979384, “Characterization of the plant homeodomain (PHD) reader family for their histone tail interactions” (Epigenetics & Chromatin, 2020).
# Where no end group is shown, it is not given here.
# How the values were obtained:
# Assay in all cases: Histone peptide microarray
# Assay type in all cases: binding, human
# PHF2 = details: for Array Heatmap value (peptide array binding signal): PHF2, GST-tagged, arrays performed twice, n of 4
# How it was run: (§1)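 Binding of recombinant GST-fused PHD readers (0.5 μM) is detected on an array of 293 histone peptides, modified singly or in combination. An optimized array protocol is followed, and each intensity is the average of quadruplicate measurements with standard deviation.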
# PHF13 = details: for Array Heatmap value (peptide array binding signal): PHF13, GST-tagged, arrays performed twice, n of 4
# How it was run: as §1
# ING1 = details: for Array Heatmap value (peptide array binding signal): ING1, GST-tagged, arrays performed twice, n of 4
# How it was run: as §1
# RAG2 = details: for Array Heatmap value (peptide array binding signal): RAG2, GST-tagged, arrays performed twice, n of 4
# How it was run: as §1
# CHD4 (PPCC) = details: for Array Heatmap value (peptide array binding signal): CHD4 (PPCC), GST-tagged, arrays performed twice, n of 4
# How it was run: as §1
# ING3 = details: for Array Heatmap value (peptide array binding signal): ING3, GST-tagged, arrays performed twice, n of 4
# How it was run: as §1
# DIDO1 = details: for Array Heatmap value (peptide array binding signal): DIDO1, GST-tagged, arrays performed twice, n of 4
# How it was run: as §1
# ING2 = details: for Array Heatmap value (peptide array binding signal): ING2, GST-tagged, arrays performed twice, n of 4
# How it was run: as §1
# ING4 = details: for Array Heatmap value (peptide array binding signal): ING4, GST-tagged, arrays performed twice, n of 4
# How it was run: as §1
# CHD5 (PCC) = details: for Array Heatmap value (peptide array binding signal): CHD5 (PCC), GST-tagged, arrays performed twice, n of 4
# How it was run: as §1
# ING5 = details: for Array Heatmap value (peptide array binding signal): ING5, GST-tagged, arrays performed twice, n of 4
# How it was run: as §1
# BPTF (PB) = details: for Array Heatmap value (peptide array binding signal): BPTF (PB), GST-tagged, arrays performed twice, n of 4
# How it was run: as §1
# PHF23 = details: for Array Heatmap value (peptide array binding signal): PHF23, GST-tagged, arrays performed twice, n of 4
# How it was run: as §1
# KDM5B (3) = details: for Array Heatmap value (peptide array binding signal): KDM5B (3), GST-tagged, arrays performed twice, n of 4
# How it was run: as §1
# MLL5 = details: for Array Heatmap value (peptide array binding signal): MLL5, GST-tagged, arrays performed twice, n of 4
# How it was run: as §1
# PHRF1 (RP) = details: for Array Heatmap value (peptide array binding signal): PHRF1 (RP), GST-tagged, arrays performed twice, n of 4
# How it was run: as §1
# PHF21A = details: for Array Heatmap value (peptide array binding signal): PHF21A, GST-tagged, arrays performed twice, n of 4
# How it was run: as §1
# AIRE (PP) = details: for Array Heatmap value (peptide array binding signal): AIRE (PP), GST-tagged, arrays performed twice, n of 4
# How it was run: as §1
# TAF3 = details: for Array Heatmap value (peptide array binding signal): TAF3, GST-tagged, arrays performed twice, n of 4
# How it was run: as §1
# DPF2 (PPC2W2) = details: for Array Heatmap value (peptide array binding signal): DPF2 (PPC2W2), GST-tagged, arrays performed twice, n of 4
# How it was run: as §1
# PHF8 = details: for Array Heatmap value (peptide array binding signal): PHF8, GST-tagged, arrays performed twice, n of 4
# How it was run: as §1
# KDM5A (3) = details: for Array Heatmap value (peptide array binding signal): KDM5A (3), GST-tagged, arrays performed twice, n of 4
# How it was run: as §1
# MORC3 (CW) = details: for Array Heatmap value (peptide array binding signal): MORC3 (CW), GST-tagged, arrays performed twice, n of 4
# How it was run: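 Binding read as mean relative signal from 4 replicates; microarray held 293 synthetic histone peptides with single or combinatorial PTMs. Each GST-tagged PHD reader was applied at 0.5 μM using the optimized Petell protocol.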
# BAZ2B = details: for Array Heatmap value (peptide array binding signal): BAZ2B, GST-tagged, arrays performed twice, n of 4
# How it was run: as §1
# CHD5 (PPCC) = details: for Array Heatmap value (peptide array binding signal): CHD5 (PPCC), GST-tagged, arrays performed twice, n of 4
# How it was run: as §1
# KDM5A (1) = details: for Array Heatmap value (peptide array binding signal): KDM5A (1), GST-tagged, arrays performed twice, n of 4
# How it was run: as §1
# KDM7A = details: for Array Heatmap value (peptide array binding signal): KDM7A, GST-tagged, arrays performed twice, n of 4
# How it was run: as §1
# SP140L = details: for Array Heatmap value (peptide array binding signal): SP140L, GST-tagged, arrays performed twice, n of 4
# How it was run: as §1
# TRIM66 (PB) = details: for Array Heatmap value (peptide array binding signal): TRIM66 (PB), GST-tagged, arrays performed twice, n of 4
# How it was run: as §1
# KDM4C (TTP) = details: for Array Heatmap value (peptide array binding signal): KDM4C (TTP), GST-tagged, arrays performed twice, n of 4
# How it was run: as §1
# KDM5B (1) = details: for Array Heatmap value (peptide array binding signal): KDM5B (1), GST-tagged, arrays performed twice, n of 4
# How it was run: as §1
# [1] = sheet "Array Heatmap", GST-tagged reader, histone peptide array, total n = 4
substance,measurement,setting,value
"H2A.Z (1-19) (N-ac): H2AZ 1-19 (Ac-AGGKAGKDSGKAKTKAVSR; UniProt P0C0S5 2-20, looked up, fragment)",Array Heatmap value (peptide array binding signal),PHF2,0.4703
same,Array Heatmap value (peptide array binding signal),PHF13,0.5558
same,Array Heatmap value (peptide array binding signal),ING1,0.4946
same,Array Heatmap value (peptide array binding signal),RAG2,0.2204
same,Array Heatmap value (peptide array binding signal),CHD4 (PPCC),0.5396
same,Array Heatmap value (peptide array binding signal),ING3,0.4524
same,Array Heatmap value (peptide array binding signal),DIDO1,0.6117
same,Array Heatmap value (peptide array binding signal),ING2,0.5892
same,Array Heatmap value (peptide array binding signal),ING4,0.3991
same,Array Heatmap value (peptide array binding signal),CHD5 (PCC),0.7354
same,Array Heatmap value (peptide array binding signal),ING5,0.2996
same,Array Heatmap value (peptide array binding signal),BPTF (PB),0.3189
same,Array Heatmap value (peptide array binding signal),PHF23,0.4986
same,Array Heatmap value (peptide array binding signal),KDM5B (3),0.4159
same,Array Heatmap value (peptide array binding signal),MLL5,0.5006
same,Array Heatmap value (peptide array binding signal),PHRF1 (RP),0.3855
same,Array Heatmap value (peptide array binding signal),PHF21A,0.4295
same,Array Heatmap value (peptide array binding signal),AIRE (PP),0.3861
same,Array Heatmap value (peptide array binding signal),TAF3,0.2353
same,Array Heatmap value (peptide array binding signal),DPF2 (PPC2W2),0.6034
same,Array Heatmap value (peptide array binding signal),PHF8,0.3344
same,Array Heatmap value (peptide array binding signal),KDM5A (3),0.4284
same,Array Heatmap value (peptide array binding signal),MORC3 (CW),0.339
same,Array Heatmap value (peptide array binding signal),BAZ2B,0.3915
same,Array Heatmap value (peptide array binding signal),CHD5 (PPCC),0.4838
same,Array Heatmap value (peptide array binding signal),KDM5A (1),0.3887
same,Array Heatmap value (peptide array binding signal),KDM7A,0.3467
same,Array Heatmap value (peptide array binding signal),SP140L,0.3411
same,Array Heatmap value (peptide array binding signal),TRIM66 (PB),0.556
same,Array Heatmap value (peptide array binding signal),KDM4C (TTP),0.4403
same,Array Heatmap value (peptide array binding signal),KDM5B (1),0.624
H3K9me1: H3 1-20 [Peptide H3K9me1],"Array Heatmap signal, PHF2",PHF2; [1],0.4569
same,"Array Heatmap signal, PHF13",PHF13; [1],0.594
same,"Array Heatmap signal, ING1",ING1; [1],0.4934
same,"Array Heatmap signal, RAG2",RAG2; [1],0.2526
same,"Array Heatmap signal, CHD4 (PPCC)",CHD4 (PPCC); [1],0.6171
same,"Array Heatmap signal, ING3",ING3; [1],0.4876
same,"Array Heatmap signal, DIDO1",DIDO1; [1],0.6415
same,"Array Heatmap signal, ING2",ING2; [1],0.5783
same,"Array Heatmap signal, ING4",ING4; [1],0.4656
same,"Array Heatmap signal, CHD5 (PCC)",CHD5 (PCC); [1],0.8558
same,"Array Heatmap signal, ING5",ING5; [1],0.3437
same,"Array Heatmap signal, BPTF (PB)",BPTF (PB); [1],0.3459
same,"Array Heatmap signal, PHF23",PHF23; [1],0.5057
same,"Array Heatmap signal, KDM5B (3)",KDM5B (3); [1],0.4949
same,"Array Heatmap signal, MLL5",MLL5; [1],0.5407
same,"Array Heatmap signal, PHRF1 (RP)",PHRF1 (RP); [1],0.6479
same,"Array Heatmap signal, PHF21A",PHF21A; [1],0.4979
same,"Array Heatmap signal, AIRE (PP)",AIRE (PP); [1],0.5694
same,"Array Heatmap signal, TAF3",TAF3; [1],0.2561
same,"Array Heatmap signal, DPF2 (PPC2W2)",DPF2 (PPC2W2); [1],0.6871
same,"Array Heatmap signal, PHF8",PHF8; [1],0.3494
same,"Array Heatmap signal, KDM5A (3)",KDM5A (3); [1],0.4739
same,"Array Heatmap signal, MORC3 (CW)",MORC3 (CW); [1],0.4491
same,"Array Heatmap signal, BAZ2B",BAZ2B; [1],0.4746
same,"Array Heatmap signal, CHD5 (PPCC)",CHD5 (PPCC); [1],0.5585
same,"Array Heatmap signal, KDM5A (1)",KDM5A (1); [1],0.4835
same,"Array Heatmap signal, KDM7A",KDM7A; [1],0.3983
same,"Array Heatmap signal, SP140L",SP140L; [1],0.3427
same,"Array Heatmap signal, TRIM66 (PB)",TRIM66 (PB); [1],0.6422
same,"Array Heatmap signal, KDM4C (TTP)",KDM4C (TTP); [1],0.5061
same,"Array Heatmap signal, KDM5B (1)",KDM5B (1); [1],0.68
"H2A.Z (1-19): H2AZ 1-19 (AGGKAGKDSGKAKTKAVSR; UniProt P0C0S5 2-20, looked up, fragment)",Array Heatmap value (peptide array binding signal),PHF2,0.6568
same,Array Heatmap value (peptide array binding signal),PHF13,0.7054
same,Array Heatmap value (peptide array binding signal),ING1,0.6166
same,Array Heatmap value (peptide array binding signal),RAG2,0.2847
same,Array Heatmap value (peptide array binding signal),CHD4 (PPCC),0.6658
same,Array Heatmap value (peptide array binding signal),ING3,0.5693
same,Array Heatmap value (peptide array binding signal),DIDO1,0.7863
same,Array Heatmap value (peptide array binding signal),ING2,0.6115
same,Array Heatmap value (peptide array binding signal),ING4,0.5367
same,Array Heatmap value (peptide array binding signal),CHD5 (PCC),0.7976
same,Array Heatmap value (peptide array binding signal),ING5,0.4264
same,Array Heatmap value (peptide array binding signal),BPTF (PB),0.4073
same,Array Heatmap value (peptide array binding signal),PHF23,0.5743
same,Array Heatmap value (peptide array binding signal),KDM5B (3),0.4993
same,Array Heatmap value (peptide array binding signal),MLL5,0.5607
same,Array Heatmap value (peptide array binding signal),PHRF1 (RP),0.5374
same,Array Heatmap value (peptide array binding signal),PHF21A,0.4938
same,Array Heatmap value (peptide array binding signal),AIRE (PP),0.4876
same,Array Heatmap value (peptide array binding signal),TAF3,0.3163
same,Array Heatmap value (peptide array binding signal),DPF2 (PPC2W2),0.7315
same,Array Heatmap value (peptide array binding signal),PHF8,0.402
same,Array Heatmap value (peptide array binding signal),KDM5A (3),0.4992
same,Array Heatmap value (peptide array binding signal),MORC3 (CW),0.3781
same,Array Heatmap value (peptide array binding signal),BAZ2B,0.5259
same,Array Heatmap value (peptide array binding signal),CHD5 (PPCC),0.6481
same,Array Heatmap value (peptide array binding signal),KDM5A (1),0.5328
same,Array Heatmap value (peptide array binding signal),KDM7A,0.3952
same,Array Heatmap value (peptide array binding signal),SP140L,0.3948
same,Array Heatmap value (peptide array binding signal),TRIM66 (PB),0.6377
same,Array Heatmap value (peptide array binding signal),KDM4C (TTP),0.563
same,Array Heatmap value (peptide array binding signal),KDM5B (1),0.6378
